# According to US20240024488A1, “COMPOUNDS AND USES THEREOF” (Foghorn Therapeutics Inc., priority 2020, published 2024):
# Counter-ions that a name gives are not always drawn.
# Columns and labels:
# [1] = molecular target: T1, HiBit-BRM fusion protein (Homo sapiens, UniProt P51531); assay: HiBiT-BRM cell-based degradation assay (Nano-Glo HiBiT Lytic Detection, 24 h); conditions: HeLa cell line expressing HiBiT-BRM; for DC50: read-out: BRM HiBit Degradation IC50
# T1 construct: expressed in transfected cells
# Experimental: (§1) Procedure: A stable HeLa cell line expressing HiBiT-BRM was generated. On day 0, 5000 cells were seeded in 40 μL of media into each well of 384-well cell culture plates. On day 1, cells were treated with 120 nL DMSO or 120 nL of 3-fold serially DMSO-diluted compounds (10 points in duplicate with 30 μM as final top dose). Subsequently plates were incubated for 24 h in a standard tissue culture incubator and equilibrated at room temperature for 15 minutes. Nano-Glo HiBiT Lytic Detection System (Promega N3050) reagent was freshly prepared and 20 ul was added to each well. Upon addition of this LgBit-containing reagent, the HiBiT and LgBiT proteins associate to form the luminescent NanoBiT luciferase. The plates were shaken for 10 minutes at room temperature and the bioluminescence read using an EnVision plate reader (PerkinElmer).
# (§2) The degradation % was calculated using the following formula: % degradation=100%−100%×(LumSample−LumLC)/(LumHC−LumLC). DMSO treated cells are employed as High Control (HC) and 2 μM of a known BRM/BRG1 degrader standard treated cells are employed as Low Control (LC).
# [2] = molecular target: T2, HiBit-BRG1 fusion protein (Homo sapiens, UniProt P51532); assay: HiBiT-BRG1 cell-based degradation assay (Nano-Glo HiBiT Lytic Detection, 24 h); conditions: HeLa cell line expressing HiBit-BRG1 and LgBit; for Dmax: read-out: BRG1 HiBit Degradation Maximum (%); for DC50: read-out: BRMG1 HiBit Degradation IC50
# T2 construct: expressed in transfected cells
# Experimental: as §1, with “On day 1, cells were treated with 120 nL DMSO or 120 nL of 3-fold serially DMSO-diluted compounds (10 points in duplicate with 30 μM as final top dose).” left out
# For measurement of BRG1 degradation, a stable HeLa cell line expressing HiBit-BRG1 and LgBit was generated. The same protocol as above was then followed.
# as §2
# T1 sequence (P51531 whole entry, the tested form may be a part): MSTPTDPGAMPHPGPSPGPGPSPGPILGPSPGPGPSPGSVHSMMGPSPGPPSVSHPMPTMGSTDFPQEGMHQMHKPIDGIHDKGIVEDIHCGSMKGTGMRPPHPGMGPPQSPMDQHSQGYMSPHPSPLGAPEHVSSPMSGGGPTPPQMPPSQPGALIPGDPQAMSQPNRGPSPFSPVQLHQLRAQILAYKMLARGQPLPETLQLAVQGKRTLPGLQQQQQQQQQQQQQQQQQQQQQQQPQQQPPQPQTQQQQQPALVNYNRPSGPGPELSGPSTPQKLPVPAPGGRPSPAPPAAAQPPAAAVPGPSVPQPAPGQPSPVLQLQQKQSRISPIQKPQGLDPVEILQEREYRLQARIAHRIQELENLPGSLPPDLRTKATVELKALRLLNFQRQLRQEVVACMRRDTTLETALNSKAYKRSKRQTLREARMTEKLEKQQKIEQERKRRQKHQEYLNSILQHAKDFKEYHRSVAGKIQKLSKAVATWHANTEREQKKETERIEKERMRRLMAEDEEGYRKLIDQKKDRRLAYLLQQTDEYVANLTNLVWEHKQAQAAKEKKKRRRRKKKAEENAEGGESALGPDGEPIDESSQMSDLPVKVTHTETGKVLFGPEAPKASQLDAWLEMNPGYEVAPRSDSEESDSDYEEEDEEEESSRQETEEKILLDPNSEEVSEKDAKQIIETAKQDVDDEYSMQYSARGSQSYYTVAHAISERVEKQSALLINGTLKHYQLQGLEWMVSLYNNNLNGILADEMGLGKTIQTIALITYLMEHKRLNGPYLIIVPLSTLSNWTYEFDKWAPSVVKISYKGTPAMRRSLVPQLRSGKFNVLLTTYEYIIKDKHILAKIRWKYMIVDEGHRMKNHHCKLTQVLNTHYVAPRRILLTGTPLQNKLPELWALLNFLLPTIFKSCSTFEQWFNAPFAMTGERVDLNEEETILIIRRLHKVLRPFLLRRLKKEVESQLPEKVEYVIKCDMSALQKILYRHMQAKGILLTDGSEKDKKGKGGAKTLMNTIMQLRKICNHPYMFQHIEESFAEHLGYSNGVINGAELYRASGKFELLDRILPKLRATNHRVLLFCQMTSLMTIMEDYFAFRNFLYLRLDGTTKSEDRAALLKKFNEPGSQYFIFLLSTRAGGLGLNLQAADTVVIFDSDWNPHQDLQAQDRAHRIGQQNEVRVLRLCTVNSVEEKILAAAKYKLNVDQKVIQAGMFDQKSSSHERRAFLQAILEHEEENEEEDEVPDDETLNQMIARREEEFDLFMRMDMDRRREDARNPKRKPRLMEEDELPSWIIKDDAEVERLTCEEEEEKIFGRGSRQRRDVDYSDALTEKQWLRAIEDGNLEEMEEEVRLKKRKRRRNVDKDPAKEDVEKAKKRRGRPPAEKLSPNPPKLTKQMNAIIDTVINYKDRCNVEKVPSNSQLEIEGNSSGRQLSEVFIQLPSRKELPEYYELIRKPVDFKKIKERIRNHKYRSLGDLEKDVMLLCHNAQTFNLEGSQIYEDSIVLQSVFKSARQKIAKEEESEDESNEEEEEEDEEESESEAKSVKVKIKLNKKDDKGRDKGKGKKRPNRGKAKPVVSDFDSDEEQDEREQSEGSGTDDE
# T2 sequence (P51532 whole entry, the tested form may be a part): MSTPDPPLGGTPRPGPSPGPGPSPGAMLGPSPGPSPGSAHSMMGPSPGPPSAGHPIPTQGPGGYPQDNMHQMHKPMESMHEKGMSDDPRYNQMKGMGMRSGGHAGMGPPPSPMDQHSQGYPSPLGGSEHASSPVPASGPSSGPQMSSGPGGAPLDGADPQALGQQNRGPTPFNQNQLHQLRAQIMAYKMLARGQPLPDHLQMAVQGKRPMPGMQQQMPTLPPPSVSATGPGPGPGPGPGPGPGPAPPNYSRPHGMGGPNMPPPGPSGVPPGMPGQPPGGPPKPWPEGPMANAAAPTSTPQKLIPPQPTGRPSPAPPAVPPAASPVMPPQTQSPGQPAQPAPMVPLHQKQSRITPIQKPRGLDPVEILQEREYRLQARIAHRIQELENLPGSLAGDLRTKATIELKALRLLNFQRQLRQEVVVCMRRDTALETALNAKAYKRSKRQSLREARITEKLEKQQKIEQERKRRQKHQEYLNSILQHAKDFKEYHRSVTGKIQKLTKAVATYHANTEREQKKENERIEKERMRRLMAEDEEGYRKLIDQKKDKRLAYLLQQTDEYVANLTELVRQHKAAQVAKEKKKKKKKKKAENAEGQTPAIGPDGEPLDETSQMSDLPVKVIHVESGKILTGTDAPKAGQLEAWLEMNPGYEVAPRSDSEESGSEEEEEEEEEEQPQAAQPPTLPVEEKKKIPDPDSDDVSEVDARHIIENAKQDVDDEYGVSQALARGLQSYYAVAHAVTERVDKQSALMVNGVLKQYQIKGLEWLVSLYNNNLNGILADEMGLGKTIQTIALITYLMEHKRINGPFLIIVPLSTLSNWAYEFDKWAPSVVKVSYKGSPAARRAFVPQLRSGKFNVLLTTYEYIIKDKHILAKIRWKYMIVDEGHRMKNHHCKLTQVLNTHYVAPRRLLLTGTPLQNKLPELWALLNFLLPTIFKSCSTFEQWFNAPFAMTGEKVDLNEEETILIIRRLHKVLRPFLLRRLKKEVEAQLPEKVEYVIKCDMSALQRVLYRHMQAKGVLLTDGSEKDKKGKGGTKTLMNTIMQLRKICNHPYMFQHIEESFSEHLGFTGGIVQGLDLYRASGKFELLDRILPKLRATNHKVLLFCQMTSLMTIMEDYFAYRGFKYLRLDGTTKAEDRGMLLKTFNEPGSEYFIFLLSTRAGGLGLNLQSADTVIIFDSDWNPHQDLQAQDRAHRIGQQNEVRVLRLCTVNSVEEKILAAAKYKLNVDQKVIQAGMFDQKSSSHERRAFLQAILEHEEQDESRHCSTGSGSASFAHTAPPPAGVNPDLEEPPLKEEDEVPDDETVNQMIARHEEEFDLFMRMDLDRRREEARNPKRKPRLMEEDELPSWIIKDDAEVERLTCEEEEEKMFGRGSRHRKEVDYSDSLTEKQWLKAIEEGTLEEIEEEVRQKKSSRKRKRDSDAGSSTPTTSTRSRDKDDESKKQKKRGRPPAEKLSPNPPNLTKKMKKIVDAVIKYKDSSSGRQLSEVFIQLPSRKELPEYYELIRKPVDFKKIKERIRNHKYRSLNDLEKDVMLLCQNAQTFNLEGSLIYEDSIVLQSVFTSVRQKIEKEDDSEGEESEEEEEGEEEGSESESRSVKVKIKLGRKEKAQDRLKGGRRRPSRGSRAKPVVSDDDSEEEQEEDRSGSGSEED
Compound,DC50 [1],Dmax [2],DC50 [2],BRM HiBit Degradation Maximum (%) [1]
"Cc1ncsc1-c1ccc(CNC(=O)[C@@H]2C[C@@H](O)CN2C(=O)[C@@H](NCCC(=O)N2CC(c3cc4cc(-c5ccccc5O)nnc4[nH]3)C2)C(C)(C)C)cc1 (racemic) [Compound 50, (2S,4R)-4-hydroxy-1-((S)-2-((3-(3-(3-(2-hydroxyphenyl)-7H-pyrrolo[2,3-c]pyridazin-6-yl)azetidin-1-yl)-3-oxopropyl)amino)-3,3-dimethylbutanoyl)-N-(4-(4-methylthiazol-5-yl)benzyl)pyrrolidine-2-carboxamide]",,< 50%,,C (“C” indicates maximum degradation < 50%)
"Cc1ncsc1-c1ccc([C@H](C)NC(=O)[C@@H]2C[C@@H](O)CN2C(=O)[C@@H](c2cc(OCCNC34CC(c5cc6cc(-c7ccccc7O)nnc6[nH]5)(C3)C4)no2)C(C)C)cc1 (racemic) [Compound 53, (2S,4R)-4-hydroxy-1-((R)-2-(3-(2-((3-(3-(2-hydroxyphenyl)-7H-pyrrolo[2,3-c]pyridazin-6-yl)bicyclo[1.1.1]pentan-1-yl)amino)ethoxy)isoxazol-5-yl)-3-methylbutanoyl)-N-((S)-1-(4-(4-methylthiazol-5-yl)phenyl)ethyl)pyrrolidine-2-carboxamide]",> 10 nM,> 75%,> 10 nM,A (“A” indicates maximum degradation ≥ 75%)
"Cc1ncsc1-c1ccc([C@H](C)NC(=O)[C@@H]2C[C@@H](O)CN2C(=O)[C@H](c2cc(OCCN3CC(c4cc5cc(-c6ccccc6O)nnc5[nH]4)C3)no2)C(C)C)cc1 (racemic) [Compound 62, (2S,4R)-4-hydroxy-1-((S)-2-(3-(2-(3-(3-(2-hydroxyphenyl)-7H-pyrrolo[2,3-c]pyridazin-6-yl)azetidin-1-yl)ethoxy)isoxazol-5-yl)-3-methylbutanoyl)-N-((S)-1-(4-(4-methylthiazol-5-yl)phenyl)ethyl)pyrrolidine-2-carboxamide]",,,,C (“C” indicates maximum degradation < 50%)
"Cc1ncsc1-c1ccc([C@H](C)NC(=O)[C@@H]2C[C@@H](O)CN2C(=O)[C@@H](c2cc(N3CCN(CCN4CC(c5cc6cc(-c7ccccc7O)nnc6[nH]5)C4)CC3)no2)C(C)C)cc1 (racemic) [Compound 273, (2S,4R)-4-hydroxy-1-[(2R)-2-{3-[4-(2-{3-[3-(2-hydroxyphenyl)-7H-pyrrolo[2,3-c]pyridazin-6-yl]azetidin-1-yl}ethyl)piperazin-1-yl]-1,2-oxazol-5-yl}-3-methylbutanoyl]-N-[(1S)-1-[4-(4-methyl-1,3-thiazol-5-yl)phenyl]ethyl]pyrrolidine-2-carboxamide]",> 100 nM,,,A (“A” indicates maximum degradation ≥ 75%)
"Cc1ncsc1-c1ccc([C@H](C)NC(=O)[C@@H]2C[C@@H](O)CN2C(=O)[C@@H](c2cc(OCCN3CC(c4cc5cc(-c6ccccc6O)nnc5[nH]4)C3)no2)C(C)C)cc1 [Compound 14, (2S,4R)-4-hydroxy-1-((R)-2-(3-(2-(3-(3-(2-hydroxyphenyl)-7H-pyrrolo[2,3-c]pyridazin-6-yl)azetidin-1-yl)ethoxy)isoxazol-5-yl)-3-methylbutanoyl)-N—((S)-1-(4-(4-methylthiazol-5-yl)phenyl)ethyl)pyrrolidine-2-carboxamide formate]",> 10 nM,,,A (“A” indicates maximum degradation ≥ 75%)
"Cc1ncsc1-c1ccc([C@H](C)NC(=O)[C@@H]2C[C@@H](O)CN2C(=O)[C@@H](c2cc(C3CCN(C(=O)N4CCc5[nH]c6nnc(-c7ccccc7O)cc6c5C4)CC3)no2)C(C)C)cc1 [Compound 105, (2S,4R)-4-hydroxy-1-((R)-2-(3-(1-(3-(2-hydroxyphenyl)-6,7,8,9-tetrahydro-5H-pyrido[3′,4′:4,5]pyrrolo[2,3-c]pyridazine-6-carbonyl)piperidin-4-yl)isoxazol-5-yl)-3-methylbutanoyl)-N—((S)-1-(4-(4-methylthiazol-5-yl)phenyl)ethyl)pyrrolidine-2-carboxamide]",> 10 nM,,,A (“A” indicates maximum degradation ≥ 75%)

# More lines, main results first:
DC50 [1],Dmax [2],DC50 [2],Compound,BRM HiBit Degradation Maximum (%) [1]
> 10 nM,< 50%,,"Cc1ncsc1-c1ccc([C@H](C)NC(=O)[C@@H]2C[C@@H](O)CN2C(=O)[C@@H](c2cc(OCCN3CCC(N4CC(c5cc6cc(-c7ccccc7O)nnc6[nH]5)C4)CC3)no2)C(C)C)cc1 (racemic) [Compound 48, (2S,4R)-4-hydroxy-1-((R)-2-(3-(2-(4-(3-(3-(2-hydroxyphenyl)-7H-pyrrolo[2,3-c]pyridazin-6-yl)azetidin-1-yl)piperidin-1-yl)ethoxy)isoxazol-5-yl)-3-methylbutanoyl)-N-((S)-1-(4-(4-methylthiazol-5-yl)phenyl)ethyl)pyrrolidine-2-carboxamide]",A (“A” indicates maximum degradation ≥ 75%)
> 10 nM,> 50%,> 100 nM,"Cc1ncsc1-c1ccc([C@H](C)NC(=O)[C@@H]2C[C@@H](O)CN2C(=O)[C@@H](c2cc(OCCN3CCC(N4CC(c5cc6cc(-c7ccccc7O)nnc6[nH]5)C4)C3)no2)C(C)C)cc1 (mixture of isomers) [Compound 49, (2S,4R)-4-hydroxy-1-((2R)-2-(3-(2-(3-(3-(3-(2-hydroxyphenyl)-7H-pyrrolo[2,3-c]pyridazin-6-yl)azetidin-1-yl)pyrrolidin-1-yl)ethoxy)isoxazol-5-yl)-3-methylbutanoyl)-N-((S)-1-(4-(4-methylthiazol-5-yl)phenyl)ethyl)pyrrolidine-2-carboxamide]",A (“A” indicates maximum degradation ≥ 75%)
> 10 nM,> 50%,> 100 nM,"Cc1ncsc1-c1ccc([C@H](C)NC(=O)[C@@H]2C[C@@H](O)CN2C(=O)[C@@H](c2cc(OCCN3CCC(c4cc5cc(-c6ccccc6O)nnc5[nH]4)CC3)no2)C(C)C)cc1 (racemic) [Compound 51, (2S,4R)-4-hydroxy-1-((R)-2-(3-(2-(4-(3-(2-hydroxyphenyl)-7H-pyrrolo[2,3-c]pyridazin-6-yl)piperidin-1-yl)ethoxy)isoxazol-5-yl)-3-methylbutanoyl)-N-((S)-1-(4-(4-methylthiazol-5-yl)phenyl)ethyl)pyrrolidine-2-carboxamide]",A (“A” indicates maximum degradation ≥ 75%)
> 10 nM,< 50%,,"Cc1ncsc1-c1ccc([C@H](C)NC(=O)[C@@H]2C[C@@H](O)CN2C(=O)[C@@H](c2cc(OCCN3CCC(c4cc5cc(-c6ccccc6O)nnc5[nH]4)C3)no2)C(C)C)cc1 (mixture of isomers) [Compound 52, (2S,4R)-4-hydroxy-1-((2R)-2-(3-(2-(3-(3-(2-hydroxyphenyl)-7H-pyrrolo[2,3-c]pyridazin-6-yl)pyrrolidin-1-yl)ethoxy)isoxazol-5-yl)-3-methylbutanoyl)-N-((S)-1-(4-(4-methylthiazol-5-yl)phenyl)ethyl)pyrrolidine-2-carboxamide]",A (“A” indicates maximum degradation ≥ 75%)
> 10 nM,> 50%,> 100 nM,"Cc1ncsc1-c1ccc([C@H](C)NC(=O)[C@@H]2C[C@@H](O)CN2C(=O)[C@@H](c2cc(OCCN3CC4(CC(c5cc6cc(-c7ccccc7O)nnc6[nH]5)C4)C3)no2)C(C)C)cc1 (racemic) [Compound 54, (2S,4R)-4-hydroxy-1-((R)-2-(3-(2-(6-(3-(2-hydroxyphenyl)-7H-pyrrolo[2,3-c]pyridazin-6-yl)-2-azaspiro[3.3]heptan-2-yl)ethoxy)isoxazol-5-yl)-3-methylbutanoyl)-N-((S)-1-(4-(4-methylthiazol-5-yl)phenyl)ethyl)pyrrolidine-2-carboxamide]",A (“A” indicates maximum degradation ≥ 75%)
> 100 nM,,,"Cc1ncsc1-c1ccc([C@H](C)NC(=O)[C@@H]2C[C@@H](O)CN2C(=O)[C@@H](c2cc(OCCN3CC(c4c[nH]c5nnc(-c6ccccc6O)cc45)C3)no2)C(C)C)cc1 [Compound 15, (2S,4R)-4-hydroxy-1-((R)-2-(3-(2-(3-(3-(2-hydroxyphenyl)-7H-pyrrolo[2,3-c]pyridazin-5-yl)azetidin-1-yl)ethoxy)isoxazol-5-yl)-3-methylbutanoyl)-N—((S)-1-(4-(4-methylthiazol-5-yl)phenyl)ethyl)pyrrolidine-2-carboxamide formate]",A (“A” indicates maximum degradation ≥ 75%)
